Like-named read-outs stand apart in the source and are kept apart here.
Legend:
VCaP cells = test: Cellular growth inhibition assay for VCaP cells (CellTiter-Glo, 72 hours); type: cell-based, human
Method in brief: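 Luminescent viability signal after 72 h of compound exposure gave GI50 values by four-parameter nonlinear regression. Compounds were added in 0.5% DMSO to cells plated 24 h earlier at 5000/well in DMEM containing 10% FBS.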

T47D cells = test: Cellular growth inhibition assay for T47D cells (CellTiter-Glo, 72 hours); type: cell-based, human; settings: 72 hours treatment
Method in brief: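 Luminescence from CellTiter-Glo 2.0 after 72 h of compound exposure gives the viability signal. Cells grew in insulin-supplemented (0.2 units/mL) DMEM with 10% FBS and were treated one day after seeding at 0.5% DMSO. GI50 values come from four-parameter nonlinear regression.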

[1] = tested on: T-Rex 293 cell line SC3 cells having increased expression of androgen receptor protein due to exposure to doxycycline; test: Cellular growth inhibition assay, T-Rex 293 SC3 cells with doxycycline (CellTiter-Glo, 72 hours); type: cell-based; settings: T-Rex 293 SC3 cells with increased androgen receptor expression due to doxycycline (10 ng/mL)
Method in brief: (§1)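 Doxycycline (10 ng/mL) was either included or omitted to toggle wild-type androgen receptor expression in SC3 cells, a T-Rex 293 clone, grown in stripped-serum, phenol red-free medium. After 72 hours with compound, viable cells were quantified by CellTiter-Glo 2.0.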

[2] = tested on: T-Rex 293 cell line SC3 cells lacking increased expression of androgen receptor protein; test: Cellular growth inhibition assay, T-Rex 293 SC3 cells without doxycycline (CellTiter-Glo, 72 hours); type: cell-based; settings: T-Rex 293 cell line SC3 cells not exposed to doxycycline (lacking increased androgen receptor expression)
Method in brief: as §1

GI50 (VCaP cells; Homo sapiens, VCaP, 72 h) [µM]	GI50 (T47D cells; Homo sapiens, T47D, 72 h) [µM]	GI50 (VCaP cells) [µM]	GI50 (T47D cells) [µM]	SMILES	GI50 ([1]; 72 h) [µM]	GI50 ([2]; 72 h) [µM]	GI50 [1] [µM]	GI50 [2] [µM]
< 0.5	< 0.5			Cc1sc2c(c1C)C(c1ccc(OCC[C@H]3CCCN(c4ccc(C(=O)N[C@H]5CC[C@H](Oc6ccc(C#N)c(Cl)c6)CC5)nn4)C3)cc1)=N[C@@H](Cc1ncco1)c1nnc(C)n1-2 [I-257]	< 0.5	< 0.5		
> 3	1.5 to 3			Cc1sc2c(c1C)C(c1ccc(N3CCC[C@H](C(=O)NCc4ccc(C(=O)N[C@H]5CC[C@H](Oc6ccc(C#N)c(Cl)c6)CC5)nn4)C3)cc1)=N[C@H](Cc1ncco1)c1nnc(C)n1-2 [I-295]	0.5 to 1.5	> 3		
		< 0.5	< 0.5	Cc1sc2c(c1C)C(c1ccc(N3CCN(C4CCN(c5ccc(C(=O)N[C@H]6CC[C@H](Oc7ccc(C#N)c(Cl)c7)CC6)nn5)CC4)C3=O)cc1)=NC(Cc1ncco1)c1nnc(C)n1-2 (stereo partly drawn) [I-414]			< 0.5	< 0.5
< 0.5	< 0.5			Cc1sc2c(c1C)C(c1ccc(C3CC(N4CCN(c5ccc(C(=O)N[C@H]6CC[C@H](Oc7ccc(C#N)c(Cl)c7)CC6)nn5)CC4)C3)cc1)=N[C@@H](Cc1ncco1)c1nnc(C)n1-2 (stereo partly drawn) [I-437]	< 0.5	< 0.5		
< 0.5	0.5 to 1.5			CCNC(=O)C[C@@H]1N=C(c2ccc(N(C)CCN3CCN(c4ccc(C(=O)N[C@H]5CC[C@H](Oc6ccc(C#N)c(Cl)c6)CC5)nn4)CC3)cc2)c2c(sc(C)c2C)-n2c(C)nnc21 [I-35]	< 0.5	0.5 to 1.5		
< 0.5	< 0.5			Cc1sc2c(c1C)C(c1ccc(C3CC3C3CC4(CCN(c5ccc(C(=O)N[C@H]6CC[C@H](Oc7ccc(C#N)c(Cl)c7)CC6)nn5)CC4)C3)cc1)=N[C@@H](Cc1ncco1)c1nnc(C)n1-2 (stereo partly drawn) [I-200]	< 0.5	< 0.5		
< 0.5	< 0.5			Cc1sc2c(c1C)C(c1ccc(C#CC3CC4(CCN(c5ccc(C(=O)N[C@H]6CC[C@H](Oc7ccc(C#N)c(Cl)c7)CC6)nn5)CC4)C3)cc1)=N[C@@H](Cc1ncco1)c1nnc(C)n1-2 [I-139]	< 0.5	< 0.5		
< 0.5	< 0.5			Cc1sc2c(c1C)C(c1ccc([C@@H]3C[C@H]3C3CC4(CCN(c5ccc(C(=O)N[C@H]6CC[C@H](Oc7ccc(C#N)c(Cl)c7)CC6)nn5)CC4)C3)cc1)=N[C@@H](Cc1ncco1)c1nnc(C)n1-2 [I-201]	< 0.5	> 3		
< 0.5	< 0.5			Cc1sc2c(c1C)C(c1ccc(OC3CC4(CCN(c5ccc(C(=O)N[C@H]6CC[C@H](Oc7ccc(C#N)c(Cl)c7)CC6)nn5)CC4)C3)cc1)=N[C@@H](C)c1nnc(C)n1-2 [I-334]	< 0.5	0.5 to 1.5		
		< 0.5	< 0.5	Cc1sc2c(c1C)C(c1ccc(CC3CCC4(CC3)CCN(c3ccc(C(=O)N[C@H]5CC[C@H](Oc6ccc(C#N)c(Cl)c6)CC5)nn3)CC4)cc1)=N[C@@H](Cc1ncco1)c1nnc(C)n1-2 [I-365]			< 0.5	0.5 to 1.5
> 3	0.5 to 1.5			Cc1sc2c(c1C)C(c1ccc(C(=O)N3CCC(Cc4ccc(C(=O)N[C@H]5CC[C@H](Oc6ccc(C#N)c(Cl)c6)CC5)nn4)CC3)cc1)=N[C@@H](Cc1ncco1)c1nnc(C)n1-2 [I-240]	< 0.5	> 3		
> 3	> 3			CNc1ccc2c(n1)C(c1ccc(OC3CC4(CCCN(c5ccc(C(=O)N[C@H]6CC[C@H](Oc7ccc(C#N)c(Cl)c7)CC6)nn5)C4)C3)cc1)=NCc1onc(C)c1-2 (stereo partly drawn) [I-107]	< 0.5	> 3		
< 0.5	< 0.5			Cc1sc2c(c1C)C(c1ccc(C[C@H]3C[C@]4(CCCN(c5ccc(C(=O)N[C@H]6CC[C@H](Oc7ccc(C#N)c(Cl)c7)CC6)nn5)C4)C3)cc1)=N[C@@H](Cc1ncco1)c1nnc(C)n1-2 [I-119]	< 0.5	< 0.5		
> 3	> 3			Cc1sc2c(c1C)C(c1ccc([C@H]3C[C@@H]([C@@H]4CCCN(c5ccc(C(=O)N[C@H]6CC[C@H](Oc7ccc(C#N)c(Cl)c7)CC6)nn5)C4)C3)cc1)=N[C@@H](Cc1ncco1)c1nnc(C)n1-2 [I-374]	> 3	> 3		
< 0.5	< 0.5			Cc1sc2c(c1C)C(c1ccc(CN3CCC4(CC3)CCN(c3ccc(C(=O)N[C@H]5CC[C@H](Oc6ccc(C#N)c(Cl)c6)CC5)nn3)CC4)cc1)=N[C@@H](Cc1ncco1)c1nnc(C)n1-2 [I-366]	< 0.5	< 0.5		

The remaining lines, values behind:

SMILES	GI50 (VCaP cells; Homo sapiens, VCaP, 72 h) [µM]	GI50 (T47D cells; Homo sapiens, T47D, 72 h) [µM]	GI50 (VCaP cells) [µM]	GI50 (T47D cells) [µM]	GI50 ([1]; 72 h) [µM]	GI50 ([2]; 72 h) [µM]	GI50 [1] [µM]	GI50 [2] [µM]
CCNC(=O)C[C@@H]1N=C(c2ccc(CN3CCN(c4ccc(C(=O)N[C@H]5CC[C@H](Oc6ccc(C#N)c(Cl)c6)CC5)nn4)CC3)cc2)c2c(sc(C)c2C)-n2c(C)nnc21 [I-38]	< 0.5	0.5 to 1.5			< 0.5	0.5 to 1.5		
Cc1sc2c(c1C)C(c1ccc(CC3CC4(CCN(c5ccc(C(=O)N[C@H]6CC[C@H](Oc7ccc(C#N)c(Cl)c7)CC6)nn5)CC4)C3)cc1)=N[C@@H](Cc1ncco1)c1nnc(C)n1-2 [I-112]	< 0.5	< 0.5			< 0.5	< 0.5		
Cc1sc2c(c1C)C(c1ccc(OC3CC4(CCN(c5ccc(C(=O)N[C@H]6CC[C@H](Oc7ccc(C#N)c(Cl)c7)CC6)nn5)CC4)C3)nc1)=N[C@@H](Cc1ncco1)c1nnc(C)n1-2 [I-223]	< 0.5	0.5 to 1.5			< 0.5	0.5 to 1.5		
Cc1sc2c(c1C)C(c1ccc(C#C[C@H]3C[C@@]4(CCCN(c5ccc(C(=O)N[C@H]6CC[C@H](Oc7ccc(C#N)c(Cl)c7)CC6)nn5)C4)C3)cc1)=N[C@@H](Cc1ncco1)c1nnc(C)n1-2 [I-235]	< 0.5	< 0.5			< 0.5	< 0.5		
Cc1sc2c(c1C)C(c1ccc(CCCN(C)C(=O)c3ccc(C(=O)N[C@H]4CC[C@H](Oc5ccc(C#N)c(Cl)c5)CC4)nn3)cc1)=N[C@@H](Cc1ncco1)c1nnc(C)n1-2 [I-305]	< 0.5	< 0.5			< 0.5	< 0.5		
Cc1sc2c(c1C)C(c1ccc(C(=O)N3CCN(C(=O)c4ccc(C(=O)N[C@H]5CC[C@H](Oc6ccc(C#N)c(Cl)c6)CC5)nn4)CC3)cc1)=N[C@@H](Cc1ncco1)c1nnc(C)n1-2 [I-238]	> 3	> 3			> 3	> 3		
Cc1sc2c(c1C)C(c1ccc(N3CCC(C(=O)NCc4ccc(C(=O)N[C@H]5CC[C@H](Oc6ccc(C#N)c(Cl)c6)CC5)nn4)CC3)cc1)=N[C@@H](Cc1ncco1)c1nnc(C)n1-2 [I-292]	< 0.5	< 0.5			< 0.5	0.5 to 1.5		
Cc1sc2c(c1C)C(c1ccc(CC[C@@H]3CC[C@@]4(CCCN(c5ccc(C(=O)N[C@H]6CC[C@H](Oc7ccc(C#N)c(Cl)c7)CC6)nn5)C4)C3)cc1)=N[C@H](Cc1ncco1)c1nnc(C)n1-2 [I-216]	< 0.5	< 0.5			< 0.5	< 0.5		
Cc1sc2c(c1C)C(c1ccc(C[C@H]3C[C@]4(CCCN(c5ccc(C(=O)N[C@H]6CC[C@H](Oc7ccc(C#N)c(Cl)c7)CC6)nn5)C4)C3)nc1)=N[C@H](Cc1ncco1)c1nnc(C)n1-2 [I-384]	> 3	> 3			> 3	> 3		
Cc1sc2c(c1C)C(c1ccc(CC[C@H]3C[C@@]4(CCCN(c5ccc(C(=O)N[C@H]6CC[C@H](Oc7ccc(C#N)c(Cl)c7)CC6)nn5)C4)C3)nc1)=N[C@@H](Cc1ncco1)c1nnc(C)n1-2 [I-207]	< 0.5	< 0.5			< 0.5	< 0.5		
Cc1sc2c(c1C)C(c1ccc(CCC(=O)N3CCN(c4ccc(C(=O)N[C@H]5CC[C@H](Oc6ccc(C#N)c(Cl)c6)CC5)nn4)CC3)cc1)=N[C@@H](Cc1ncco1)c1nnc(C)n1-2 [I-249]	< 0.5	< 0.5			< 0.5	0.5 to 1.5		
Cc1sc2c(c1C)C(c1ccc(CNC(=O)NCc3ccc(C(=O)N[C@H]4CC[C@H](Oc5ccc(C#N)c(Cl)c5)CC4)nn3)cc1)=N[C@@H](Cc1ncco1)c1nnc(C)n1-2 [I-289]	1.5 to 3	1.5 to 3			< 0.5	> 3		
Cc1sc2c(c1C)C(c1ccc(N3CC(C4CC5(C4)CN(c4ccc(C(=O)N[C@H]6CC[C@H](Oc7ccc(C#N)c(Cl)c7)CC6)nn4)C5)C3)cc1)=N[C@@H](Cc1ncco1)c1nnc(C)n1-2 [I-387]	< 0.5	< 0.5			< 0.5	< 0.5		
Cc1sc2c(c1C)C(c1ccc(CCOC3CCN(c4ccc(C(=O)N[C@H]5CC[C@H](Oc6ccc(C#N)c(Cl)c6)CC5)nn4)CC3)cc1)=NC(Cc1ncco1)c1nnc(C)n1-2 (stereo partly drawn) [I-110]	< 0.5	< 0.5			< 0.5	> 3		
Cc1sc2c(c1C)C(c1ccc([C@H]3C[C@H](C[C@H]4CCCN(c5ccc(C(=O)N[C@H]6CC[C@H](Oc7ccc(C#N)c(Cl)c7)CC6)nn5)C4)C3)cc1)=N[C@@H](Cc1ncco1)c1nnc(C)n1-2 [I-358]	< 0.5	< 0.5			< 0.5	> 3		

From patent US20260109707A1, “HETEROBIFUNCTIONAL COMPOUNDS AND METHODS OF TREATING DISEASE” (Halda Therapeutics OpCo. Inc., priority 2022, published 2026)
